Patent US20060135798A1, “2-Methylene-19-nor-(20S)-1alpha-hydroxy-trishomopregnacalciferol” (Wisconsin Alumni Research Foundation, priority 2004, published 2006)

How the values were obtained:
[1] = target: T1, full-length recombinant rat vitamin D receptor (Rattus norvegicus, UniProt P13053); assay: Vitamin D receptor binding, competition with [3H]-1,25-(OH)2-D3; conditions: compared with 1,25(OH)2D3; FIG. 1
T1 construct: Full-length recombinant rat receptor was expressed in E. coli BL21(DE3) Codon Plus RIL cells; histidine tag (C); made in house; host or cells: E. coli BL21(DE3) Codon Plus RIL
T1 sequence (P13053 1-423): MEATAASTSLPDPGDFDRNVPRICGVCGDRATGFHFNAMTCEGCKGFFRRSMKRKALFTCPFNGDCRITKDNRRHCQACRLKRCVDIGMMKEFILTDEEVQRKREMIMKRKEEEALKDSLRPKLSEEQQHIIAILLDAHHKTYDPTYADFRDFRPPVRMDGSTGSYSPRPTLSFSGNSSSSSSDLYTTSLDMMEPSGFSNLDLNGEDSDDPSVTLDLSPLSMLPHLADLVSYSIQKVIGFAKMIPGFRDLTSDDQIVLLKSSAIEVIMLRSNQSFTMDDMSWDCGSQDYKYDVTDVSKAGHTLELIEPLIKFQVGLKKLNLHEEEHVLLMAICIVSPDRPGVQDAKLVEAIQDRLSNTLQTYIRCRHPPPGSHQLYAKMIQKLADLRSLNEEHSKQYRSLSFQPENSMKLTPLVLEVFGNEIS
Procedure: Full-length recombinant rat receptor was expressed in E. coli BL21(DE3) Codon Plus RIL cells and purified to homogeneity using two different column chromatography systems. The first system was a nickel affinity resin that utilizes the C-terminal histidine tag on this protein. The protein that was eluted from this resin was further purified using ion exchange chromatography (S-Sepharose Fast Flow). Aliquots of the purified protein were quick frozen in liquid nitrogen and stored at −80° C. until use. For use in binding assays, the protein was diluted in TEDK50 (50 mM Tris, 1.5 mM EDTA, pH 7.4, 5 mM DTT, 150 mM KCl) with 0.1% Chaps detergent. The receptor protein and ligand concentration was optimized such that no more than 20% of the added radiolabeled ligand was bound to the receptor.
Unlabeled ligands were dissolved in ethanol and the concentrations determined using UV spectrophotometry (1,25(OH)2D3: molar extinction coefficient=18,200 and λmax=265 nm; Analogs: molar extinction coefficient=42,000 and λmax=252 nm). Radiolabeled ligand (^3H-1,25(OH)2D3, ˜159 Ci/mmole) was added in ethanol at a final concentration of 1 nM.
Radiolabeled and unlabeled ligands were added to 100 mcl of the diluted protein at a final ethanol concentration of ≦10%, mixed and incubated overnight on ice to reach binding equilibrium. […] Total binding was determined from the tubes containing only radiolabeled ligand.

[2] = tested on: HL-60 cells; assay: HL-60 differentiation (nitro blue tetrazolium reduction); type: cell-based, human; conditions: compared with 1,25-(OH)2D3; FIG. 2
Procedure: The study drugs were dissolved in ethanol and the concentrations determined using UV spectrophotometry. Serial dilutions were prepared so that a range of drug concentrations could be tested without changing the final concentration of ethanol (≦0.2%) present in the cell cultures.
Human promyelocytic leukemia (HL60) cells were grown in RPMI-1640 medium containing 10% fetal bovine serum. The cells were incubated at 37° C. in the presence of 5% CO2.
HL60 cells were plated at 1.2×10^5 cells/ml. Eighteen hours after plating, cells in duplicate were treated with drug. Four days later, the cells were harvested and a nitro blue tetrazolium reduction assay was performed (Collins et al., 1979; J. Exp. Med. 149:969-974). The percentage of differentiated cells was determined by counting a total of 200 cells and recording the number that contained intracellular black-blue formazan deposits. Verification of differentiation to monocytic cells was determined by measuring phagocytic activity (data not shown).

[3] = tested on: 24-hydroxylase (24Ohase) gene promoter; assay: In vitro transcription assay (24-hydroxylase promoter luciferase reporter in ROS 17/2.8 cells); type: cell-based; conditions: compared with 1,25-(OH)2D3; FIG. 3
Procedure: Transcription activity was measured in ROS 17/2.8 (bone) cells that were stably transfected with a 24-hydroxylase (24Ohase) gene promoter upstream of a luciferase reporter gene (Arbour et al., 1998). Cells were given a range of doses. Sixteen hours after dosing the cells were harvested and luciferase activities were measured using a luminometer. RLU=relative luciferase units.

[4] = Bone calcium mobilization (serum calcium on low calcium diet); type: in vivo, rat; conditions: rats, ip, even at 2340 pmol/day; FIG. 4
Procedure: (§1) Male, weanling Sprague-Dawley rats were placed on Diet 11 (0.47% Ca) diet +AEK for one week followed by Diet 11 (0.02% Ca) +AEK for 3 weeks. The rats were then switched to a diet containing 0.47% Ca for one week followed by two weeks on a diet containing 0.02% Ca. Dose administration began during the last week on 0.02% calcium diet. Four consecutive ip doses were given approximately 24 hours apart. Twenty-four hours after the last dose, blood was collected from the severed neck and the concentration of serum calcium determined as a measure of bone calcium mobilization. The first 10 cm of the intestine was also collected for intestinal calcium transport analysis using the everted gut sac method.

[5] = Intestinal calcium transport (everted gut sac method); type: in vivo, rat; conditions: rats, ip; FIG. 5
Procedure: as §1

[6] = tested on: parathyroid hormone (PTH); assay: PTH suppression in adult rats; type: in vivo, rat; conditions: ip, 7 consecutive days
Procedure: (§2) Adult, female Sprague-Dawley rats were obtained from Harlan (Madison, Wis.).
(§3) Upon receipt, the animals were identified by individual tail marks. Animals were housed in suspended, stainless steel, wire-bottom cages. Each cage contained one animal. The animal rooms were maintained at a temperature of 68 to 72° F. and a relative humidity of 25 to 75%. The holding rooms were set to provide 12 hours of light per day. Water and a purified rodent diet (Suda et al., Purified Rodent Diet-Diet 11) containing […] 0.3% phosphorus and fat soluble vitamins A, D, E and K were provided ad libitum.
(§4) Animals were randomly assigned to treatment groups (5 animals/group). All doses were administered intraperitoneally in 100 microliters of propylene glycol. Four to seven consecutive doses were given approximately 24 hours apart. Dosing was initiated after the animals had been allowed to acclimate for at least one week.
Both control and test articles were administered by intraperitoneal injection in 100 microliters for 4-7 consecutive days spaced approximately 24 hours apart. 1,25(OH)2D3 was given for 4 consecutive days, whereas, the test drugs were given for 7 consecutive days.
Twenty-four hours after the final dose, blood was collected from the tail artery and the concentration of bioactive serum PTH was measured using the rat BioActive Intact PTH ELISA Kit from Immutopics, Inc. (San Clemente, Calif.).

[7] = Hypercalcemia: serum calcium in adult rats; type: in vivo, rat; conditions: ip, 7 consecutive days
Procedure: as §2, §3, §4
Both control and test articles were administered by intraperitoneal injection in 100 microliters for 4-7 consecutive days spaced approximately 24 hours apart. […]
Twenty-four hours after the final dose, approximately 1 ml of blood was collected from the tail artery of each experimental animal. […] The level of calcium was determined by diluting the serum into 0.1% lanthum chloride and measuring the absorbance on an atomic absorption spectrophotometer (Perkin Elmer Model 3110, Shelton, Conn.).

- binding to the vitamin D receptor relative to the native hormone [1]: almost equal to the native hormone
- serum calcium concentrations [7]: not raising serum calcium concentrations
SMILES: C=C1[C@H](O)CC(=C/C=C2\CCC[C@]3(C)C([C@@H](C)CCC)CC[C@@H]23)C[C@H]1O (stereo in doubt) [2-Methylene-19-nor-(20S)-1α-hydroxy-trishomopregnacalciferol]
- activity in inducing differentiation of HL-60 cells [2]: equal in activity to 1,25-(OH)2D3
- transcription activity [3]: within one order of magnitude of the activity of 1,25-(OH)2D3
- bone calcium mobilizing activity [4]: little bone calcium mobilizing activity
- intestinal calcium transport [5]: retain some ability to elevate intestinal calcium transport
- suppression of parathyroid hormone [6]: remarkably effective in suppressing parathyroid hormone
